Experimental data as given in paper PMC11110157, “Biosynthesis of the bacterial antibiotic 3,7-dihydroxytropolone through enzymatic salvaging of catabolic shunt products” (Chemical Science, 2024).

Tests used:
TrlD [1] = biological target: T1, TrlD (Streptomyces cyaneofuscatus, UniProt A0A2S1JZG9); test: co-purification with bound flavin; assay type: binding; settings: FAD preferred over FMN as flavin substrate
T1 construct: heterologously produced and purified; fraction co-purified with FAD
T1 sequence (A0A2S1JZG9 1-185): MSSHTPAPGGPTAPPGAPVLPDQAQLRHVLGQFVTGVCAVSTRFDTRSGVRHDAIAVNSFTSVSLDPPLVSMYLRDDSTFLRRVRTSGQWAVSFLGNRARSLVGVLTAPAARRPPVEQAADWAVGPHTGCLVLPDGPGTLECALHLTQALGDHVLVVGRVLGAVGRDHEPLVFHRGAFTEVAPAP

TrlE [2] = biological target: T2, TrlE (Streptomyces cyaneofuscatus, UniProt A0A2S1JZI9); test: X-ray crystallography ([…] A); assay type: binding; settings: FAD non-covalently bound, IN conformation
T2 construct: heterologously produced and purified; crystal structure model residues 1-400
T2 sequence (A0A2S1JZI9 1-400): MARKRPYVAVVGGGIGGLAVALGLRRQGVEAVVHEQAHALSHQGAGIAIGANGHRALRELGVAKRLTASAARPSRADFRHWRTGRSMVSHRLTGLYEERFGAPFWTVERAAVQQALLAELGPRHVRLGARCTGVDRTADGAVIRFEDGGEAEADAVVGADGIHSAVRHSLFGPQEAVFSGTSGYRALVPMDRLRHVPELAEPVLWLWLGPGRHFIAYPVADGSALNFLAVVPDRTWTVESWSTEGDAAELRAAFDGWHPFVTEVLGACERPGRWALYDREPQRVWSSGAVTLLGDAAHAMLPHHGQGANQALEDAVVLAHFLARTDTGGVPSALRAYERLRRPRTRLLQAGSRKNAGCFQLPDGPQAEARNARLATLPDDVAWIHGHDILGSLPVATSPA

TrlD [3] = biological target: T1, TrlD; test: flavin reductase assay, cofactor specificity; assay type: biochemical; settings: preferred over NADPH
TrlE [4] = biological target: T2, TrlE; test: differential scanning fluorimetry; assay type: binding; settings: substrate analogue; thermal shift
TrlE [5] = biological target: T3, TrlE (Streptomyces cyaneofuscatus, UniProt A0A2S1JZI9, H213E); test: substrate consumption and product formation assay; assay type: biochemical; settings: strongly reduced activity, minor product formation
T3 construct: heterologously produced and purified; crystal structure model residues 1-400
T3 sequence (A0A2S1JZI9 entry or part of it H213E): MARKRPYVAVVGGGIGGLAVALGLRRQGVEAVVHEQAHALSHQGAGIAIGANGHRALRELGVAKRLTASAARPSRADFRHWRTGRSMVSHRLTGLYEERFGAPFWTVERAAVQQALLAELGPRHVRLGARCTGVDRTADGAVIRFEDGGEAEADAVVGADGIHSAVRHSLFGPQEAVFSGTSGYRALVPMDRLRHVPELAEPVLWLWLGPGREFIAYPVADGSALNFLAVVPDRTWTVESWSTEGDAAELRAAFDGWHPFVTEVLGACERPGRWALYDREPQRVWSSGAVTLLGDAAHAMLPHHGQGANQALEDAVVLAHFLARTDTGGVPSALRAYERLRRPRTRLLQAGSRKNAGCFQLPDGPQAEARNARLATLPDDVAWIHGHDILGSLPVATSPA

TrlE [6] = biological target: T4, TrlE (Streptomyces cyaneofuscatus, UniProt A0A2S1JZI9, Y217F); test: substrate consumption and product formation assay; assay type: biochemical; settings: strongly reduced activity
T4 construct: heterologously produced and purified; crystal structure model residues 1-400
T4 sequence (A0A2S1JZI9 entry or part of it Y217F): as the sequence (A0A2S1JZI9 entry or part of it H213E) above, with E213H, Y217F counted along it

TrlE [7] = biological target: T5, TrlE (Streptomyces cyaneofuscatus, UniProt A0A2S1JZI9, H213Q); test: substrate consumption and product formation assay; assay type: biochemical; settings: strongly reduced activity, minor product formation
T5 construct: heterologously produced and purified; crystal structure model residues 1-400
T5 sequence (A0A2S1JZI9 entry or part of it H213Q): as the sequence (A0A2S1JZI9 entry or part of it H213E) above, with E213Q counted along it

Cc1cc2nc3c(=O)[nH]c(=O)nc-3n(C[C@H](O)[C@H](O)[C@H](O)COP(=O)(O)OP(=O)(O)OC[C@H]3O[C@@H](n4cnc5c(N)ncnc54)[C@H](O)[C@@H]3O)c2cc1C [FAD]
co-purification with bound flavin (TrlD [1]): a fraction of TrlD was co-purified with bound FAD | X-ray crystallography (2.5 A) (TrlE [2]): The non-covalently bound FAD observed in this structure is present in the “IN” conformation

NC(=O)C1=CN([C@@H]2O[C@H](COP(=O)(O)OP(=O)(O)OC[C@H]3O[C@@H](n4cnc5c(N)ncnc54)[C@H](O)[C@@H]3O)[C@@H](O)[C@H]2O)C=CC1 [NADH]
flavin reductase assay, cofactor specificity (TrlD [3]): TrlD preferred FAD and NADH over FMN and NADPH, respectively

O=C(O)c1ccccc1O [salicylate]
differential scanning fluorimetry (TrlE [4]): binding of these compounds to TrlE was confirmed by differential scanning fluorimetry (DSF)

O=C(O)C1=C(O)CC=CC=C1 [compound 7, dihydrotropone-2-carboxylate]
substrate consumption and product formation assay (TrlE [5]): For both H213E and H213Q variants, minor product formation was still observed | substrate consumption and product formation assay (TrlE [6]): the other variants showed strongly reduced catalytic activity, with slowed substrate consumption and product formation | substrate consumption and product formation assay (TrlE [7]): For both H213E and H213Q variants, minor product formation was still observed

O=C(O)c1cccccc1=O [tropone-2-carboxylate]
differential scanning fluorimetry (TrlE [4]): binding of these compounds to TrlE was confirmed by differential scanning fluorimetry (DSF)
